Key:
velvetleaf [1] = test: Test A pre-/postemergence greenhouse test; type: in vivo, Abutilon theophrasti; conditions: for Velvetleaf plant response rating: 0 to 100 scale
Outline: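 Sowing in loam/sand; same-day pre (directed soil spray) and post (foliar, 1–2 leaf, 2–10 cm) treatment with surfactant-containing non-phytotoxic solvent formulation; ~10 days in greenhouse; eye-scored injury against untreated plants.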

blackgrass = test: Test C pre-/postemergence test; type: in vivo, Alopecurus myosuroides; conditions: Postemergence; for Plant response rating, Blackgrass: scale 0 to 100, 0 no effect, 100 complete control
Description: (§1) Seeds of plant species selected from blackgrass (Alopecurus myosuroides), downy brome (Bromus tectorum), green foxtail (Setaria viridis), Italian ryegrass (Lolium multiflorum), wheat (Triticum aestivum), wild oat (Avena fatua), catchweed bedstraw (Galium aparine), Russian thistle (Salsola kali), […] (Cynodon dactylon), Surinam grass (Brachiaria decumbens), cocklebur (Xanthium strumarium), corn (Zea mays), crabgrass (Digitaria sanguinalis), woolly cupgrass (Eriochloa villosa), giant foxtail (Setaria faberii), Goosegrass (Eleusin indica), johnsongrass (Sorghum halepense), kochia (Kochia scoparia), lambsquarters (Chenopodium album), morningglory (Ipomoea coccinea), eastern black nightshade (Solanum ptycanthum), yellow nutsedge (Cyperus esculentus), pigweed (Amaranthus retroflexus), common ragweed (Ambrosia elation), soybean (Glycine max), common (oilseed) sunflower (Helianthus annuus), and velvetleaf (Abutilon theophrasti) were planted and treated preemergence with test chemicals formulated in a non-phytotoxic solvent mixture which included a surfactant. At the same time, plants selected from these crop and weed species and also winter barley (Hordeum vulgare), canarygrass (Phalaris minor), and chickweed (Stellaria media) were treated with postemergence applications of some of the test chemicals formulated in the same manner. Plants ranged in height from 2 to 18 cm (1- to 4-leaf stage) for postemergence treatments. […] At time of treatment, test pots were flooded to 3 cm above the soil surface, treated by application of test compounds directly to the paddy water, and then maintained at that water depth for the duration of the test. […] A dash (-) response means no test result.

downy brome = test: Test C pre-/postemergence test; type: in vivo, Bromus tectorum; conditions: Postemergence; for Plant response rating, Bromegrass, Downy: scale 0 to 100, 0 no effect, 100 complete control
Description: as §1

green foxtail = test: Test C pre-/postemergence test; type: in vivo, Setaria viridis; conditions: Postemergence; for Plant response rating, Foxtail, Green: scale 0 to 100, 0 no effect, 100 complete control
Description: as §1

Italian ryegrass = test: Test C pre-/postemergence test; type: in vivo, Lolium multiflorum; conditions: Postemergence; for Plant response rating, Ryegrass, Italian: scale 0 to 100, 0 no effect, 100 complete control
Description: as §1

wild oat = test: Test C pre-/postemergence test; type: in vivo, Avena fatua; conditions: Postemergence; for Plant response rating, Oat, Wild: scale 0 to 100, 0 no effect, 100 complete control
Description: as §1

cocklebur = test: Test C pre-/postemergence test; type: in vivo, Xanthium strumarium; conditions: for Plant response rating, Cocklebur: scale 0 to 100, 0 no effect, 100 complete control
Description: as §1

corn = test: Test C pre-/postemergence test; type: in vivo, Zea mays; conditions: for Plant response rating, Corn: scale 0 to 100, 0 no effect, 100 complete control
Description: as §1

woolly cupgrass = test: Test C pre-/postemergence test; type: in vivo, Eriochloa villosa; conditions: for Plant response rating, Cupgrass, Woolly: scale 0 to 100, 0 no effect, 100 complete control
Description: as §1

giant foxtail = test: Test C pre-/postemergence test; type: in vivo, Setaria faberii; conditions: for Plant response rating, Foxtail, Giant: scale 0 to 100, 0 no effect, 100 complete control
Description: as §1

johnsongrass = test: Test C pre-/postemergence test; type: in vivo, Sorghum halepense; conditions: for Plant response rating, Johnsongrass: scale 0 to 100, 0 no effect, 100 complete control
Description: as §1

morningglory = test: Test C pre-/postemergence test; type: in vivo, Ipomoea coccinea; conditions: for Plant response rating, Morningglory: scale 0 to 100, 0 no effect, 100 complete control
Description: as §1

soybean = test: Test C pre-/postemergence test; type: in vivo, Glycine max; conditions: for Plant response rating, Soybean: scale 0 to 100, 0 no effect, 100 complete control
Description: as §1

velvetleaf [2] = test: Test C pre-/postemergence test; type: in vivo, Abutilon theophrasti; conditions: for Plant response rating, Velvetleaf: scale 0 to 100, 0 no effect, 100 complete control
Description: as §1

[3] = 31 g ai/ha, Preemergence, scale 0 to 100
[4] = 62 g ai/ha, preemergence, scale 0 (no effect) to 100 (complete control)
[5] = preemergence, 125 g ai/ha, scale 0 (no effect) to 100 (complete control)

In the case of Cn1nc(C(F)(F)F)c(C[S+]([O-])c2ccc(Cl)c[n+]2[O-])c1OC(F)F (stereo not shown) [Compound 6], the “Velvetleaf plant response rating” value (velvetleaf [1]; Postemergence, 125 g ai/ha, 0 is no effect, 100 is complete control) is reported as 50, the “Velvetleaf plant response rating” value (velvetleaf [1]; Postemergence, 500 g ai/ha, 0 is no effect, 100 is complete control) is reported as 80 and the “Velvetleaf plant response rating” value (velvetleaf [1]; Preemergence, 125 g ai/ha, 0 no effect, 100 complete control) is reported as 90. For the same compound, the “Plant response rating, Velvetleaf” value (velvetleaf [1]; Preemergence, 500 g ai/ha, 0 to 100 scale where 0 is no effect and 100 is complete control) was 100, the “Plant response rating (0 to 100), Blackgrass” value (blackgrass; 31 g ai/ha) was 0 and the “Plant response rating, Blackgrass” value (blackgrass; 62 g ai/ha) was 50. The “Plant response rating, Blackgrass” value (blackgrass; 125 g ai/ha) was 50, the “Plant response rating, Blackgrass” value (blackgrass; 250 g ai/ha) was 50 and the “Plant response rating (0 to 100), Bromegrass, Downy” value (downy brome; 31 g ai/ha) was 0. The “Plant response rating, Bromegrass, Downy” value (downy brome; 62 g ai/ha) was 30, the “Plant response rating, Bromegrass, Downy” value (downy brome; 125 g ai/ha) was 50 and the “Plant response rating, Bromegrass, Downy” value (downy brome; 250 g ai/ha) was 80. The “Plant response rating (0 to 100), Foxtail, Green” value (green foxtail; 31 g ai/ha) was 30, the “Plant response rating, Foxtail, Green” value (green foxtail; 62 g ai/ha) was 55 and the “Plant response rating, Foxtail, Green” value (green foxtail; 125 g ai/ha) was 70. The “Plant response rating, Foxtail, Green” value (green foxtail; 250 g ai/ha) was 70, the “Plant response rating (0 to 100), Ryegrass, Italian” value (Italian ryegrass; 31 g ai/ha) was 0 and the “Plant response rating (0 to 100), Ryegrass, Italian” value (Italian ryegrass; 62 g ai/ha) was 50. For the same compound, the “Plant response rating, Ryegrass, Italian” value (Italian ryegrass; 125 g ai/ha) was 85, the “Plant response rating, Ryegrass, Italian” value (Italian ryegrass; 250 g ai/ha) was 90 and the “Plant response rating (0 to 100), Oat, Wild” value (wild oat; 31 g ai/ha) was 20. The “Plant response rating, Oat, Wild” value (wild oat; 62 g ai/ha) was 50, the “Plant response rating, Oat, Wild” value (wild oat; 250 g ai/ha) was 60 and the “Cocklebur plant response rating” value (cocklebur; [3]) was 0. For the same compound, the “Cocklebur plant response rating” value (cocklebur; [4]) was 0, the “Plant response rating (0 to 100), Cocklebur” value (cocklebur; Postemergence, 31 g ai/ha) was 0 and the “Plant response rating, Cocklebur” value (cocklebur; Postemergence, 62 g ai/ha) was 0. The “Plant response rating, Cocklebur” value (cocklebur; Postemergence, 125 g ai/ha) was 0, the “Plant response rating, Cocklebur” value (cocklebur; Postemergence, 250 g ai/ha) was 0 and the “Plant response rating (0 to 100), Cocklebur” value (cocklebur; Preemergence, 250 g ai/ha) was 0. The “Cocklebur plant response rating” value (cocklebur; [5]) was 0, the “Corn plant response rating” value (corn; [3]) was 0 and the “Corn plant response rating” value (corn; [4]) was 60. The “Plant response rating (0 to 100), Corn” value (corn; Postemergence, 31 g ai/ha) was 0, the “Plant response rating, Corn” value (corn; Postemergence, 62 g ai/ha) was 0 and the “Plant response rating, Corn” value (corn; Postemergence, 125 g ai/ha) was 0. For the same compound, the “Plant response rating, Corn” value (corn; Postemergence, 250 g ai/ha) was 0, the “Plant response rating (0 to 100), Corn” value (corn; Preemergence, 250 g ai/ha) was 98 and the “Corn plant response rating” value (corn; [5]) was 60. For the same compound, the “Cupgrass, Woolly plant response rating” value (woolly cupgrass; [3]) was 90, the “Cupgrass, Woolly plant response rating” value (woolly cupgrass; [4]) was 100 and the “Plant response rating (0 to 100), Cupgrass, Woolly” value (woolly cupgrass; Postemergence, 31 g ai/ha) was 0. For the same compound, the “Plant response rating, Cupgrass, Woolly” value (woolly cupgrass; Postemergence, 62 g ai/ha) was 0, the “Plant response rating, Cupgrass, Woolly” value (woolly cupgrass; Postemergence, 125 g ai/ha) was 50 and the “Plant response rating, Cupgrass, Woolly” value (woolly cupgrass; Postemergence, 250 g ai/ha) was 55. For the same compound, the “Plant response rating (0 to 100), Cupgrass, Woolly” value (woolly cupgrass; Preemergence, 250 g ai/ha) was 100, the “Cupgrass, Woolly plant response rating” value (woolly cupgrass; [5]) was 100 and the “Foxtail, Giant plant response rating” value (giant foxtail; [3]) was 50. The “Foxtail, Giant plant response rating” value (giant foxtail; [4]) was 95, the “Plant response rating (0 to 100), Foxtail, Giant” value (giant foxtail; Postemergence, 31 g ai/ha) was 0 and the “Plant response rating, Foxtail, Giant” value (giant foxtail; Postemergence, 62 g ai/ha) was 30. For the same compound, the “Plant response rating, Foxtail, Giant” value (giant foxtail; Postemergence, 125 g ai/ha) was 60, the “Plant response rating, Foxtail, Giant” value (giant foxtail; Postemergence, 250 g ai/ha) was 70 and the “Plant response rating (0 to 100), Foxtail, Giant” value (giant foxtail; Preemergence, 250 g ai/ha) was 100. For the same compound, the “Foxtail, Giant plant response rating” value (giant foxtail; [5]) was 98, the “Johnsongrass plant response rating” value (johnsongrass; [3]) was 65 and the “Johnsongrass plant response rating” value (johnsongrass; [4]) was 98. The “Plant response rating (0 to 100), Johnsongrass” value (johnsongrass; Postemergence, 31 g ai/ha) was 0, the “Plant response rating, Johnsongrass” value (johnsongrass; Postemergence, 62 g ai/ha) was 0 and the “Plant response rating, Johnsongrass” value (johnsongrass; Postemergence, 125 g ai/ha) was 30. The “Plant response rating, Johnsongrass” value (johnsongrass; Postemergence, 250 g ai/ha) was 35, the “Plant response rating (0 to 100), Johnsongrass” value (johnsongrass; Preemergence, 250 g ai/ha) was 100 and the “Johnsongrass plant response rating” value (johnsongrass; [5]) was 98. The “Morningglory plant response rating” value (morningglory; [3]) was 0, the “Morningglory plant response rating” value (morningglory; [4]) was 0 and the “Plant response rating (0 to 100), Morningglory” value (morningglory; Postemergence, 31 g ai/ha) was 10. For the same compound, the “Plant response rating, Morningglory” value (morningglory; Postemergence, 62 g ai/ha) was 50, the “Plant response rating, Morningglory” value (morningglory; Postemergence, 125 g ai/ha) was 50 and the “Plant response rating, Morningglory” value (morningglory; Postemergence, 250 g ai/ha) was 50. For the same compound, the “Plant response rating (0 to 100), Morningglory” value (morningglory; Preemergence, 250 g ai/ha) was 70, the “Morningglory plant response rating” value (morningglory; [5]) was 10 and the “Soybean plant response rating” value (soybean; [3]) was 0. For the same compound, the “Soybean plant response rating” value (soybean; [4]) was 0, the “Plant response rating (0 to 100), Soybean” value (soybean; Postemergence, 31 g ai/ha) was 5 and the “Plant response rating (0 to 100), Soybean” value (soybean; Postemergence, 62 g ai/ha) was 60. For the same compound, the “Plant response rating, Soybean” value (soybean; Postemergence, 125 g ai/ha) was 70, the “Plant response rating, Soybean” value (soybean; Postemergence, 250 g ai/ha) was 90 and the “Plant response rating (0 to 100), Soybean” value (soybean; Preemergence, 250 g ai/ha) was 50. For the same compound, the “Soybean plant response rating” value (soybean; [5]) was 0, the “Velvetleaf plant response rating” value (velvetleaf [2]; [4]) was 0 and the “Plant response rating (0 to 100), Velvetleaf” value (velvetleaf [2]; Postemergence, 31 g ai/ha) was 0. For the same compound, the “Plant response rating (0 to 100), Velvetleaf” value (velvetleaf [2]; Postemergence, 62 g ai/ha) was 10, the “Plant response rating, Velvetleaf” value (velvetleaf [2]; Postemergence, 125 g ai/ha) was 30 and the “Plant response rating, Velvetleaf” value (velvetleaf [2]; Postemergence, 250 g ai/ha) was 50. The “Plant response rating (0 to 100), Velvetleaf” value (velvetleaf [2]; Preemergence, 250 g ai/ha) was 40.

From patent US20100298141A1, “SUBSTITUTED PYRIDINE N-OXIDE HERBICIDES” (E. I. DU PONT DE NEMOURS AND COMPANY, priority 2007, published 2010)
